# Assay results: US8653236B2, “Therapeutic agents” (Inter-K Pty Limited, priority 2008, dated 2014)
# Entries after “also recorded” stand apart in the source; their conditions may differ. No end group written: not given here.
# Assays:
# Type in all cases: cell-based
# [1] = system: HT29 human colorectal adenocarcinoma cells; assay: MTT cell proliferation assay, serum-containing
# Procedure: (§1) HT29 (colorectal adenocarcinoma) (ATCC HTB-38; Manassas, Va.). SW480 colon carcinoma cells (ATCC) and MKN45 gastric carcinoma cells (Cancer Research Laboratory, University of New South Wales, Sydney, Australia) were maintained in DMEM (Invitrogen, Carlsbad, Calif.) containing 10% heat inactivated, filtered, fetal bovine serum (FBS; Invitrogen) and 20 mM HEPES buffer. Cell culture was carried out in an incubator set at 37° C. in 5% CO2 in air. Cells were grown to approximately 80% confluence in tissue culture flasks before being recovered from the substrate by trypsinisation. Briefly, resident culture media was removed and cells washed twice with sterile phosphate-buffered saline solution. A volume of 10× trypsin in EDTA (to provide 0.5% trypsin w/w) was added in sufficient quantity to cover the cells. When cells had sufficiently detached from the substrate, trypsin activity was stopped by the addition of 10% FBS in DMEM. Detached cells were transferred to a conical sterile tube and the suspended cells passaged ten times up and down through a 10 ml pipette to produce a single cell suspension suitable for counting. The number of viable cells was determined using a viability stain (Trypan blue) and counting using a haemocytometer.
# (§2) The MTT cell proliferation assay measures cell proliferation rate and, in instances where cell viability is compromised, the assay indicates a comparative reduction in cell viability.
# (§3) Single cell suspensions of viable trypsinised cells were seeded into 96-well tissue culture plates at a density of 2×10^3 cells per well in a volume of 100 ul of culture media with or without serum. A set of triplicate wells was prepared for each concentration of compound being tested. […]
# (§4) Appropriate concentrations of compound were prepared by dilution of freshly prepared sterile 1 mM stock solutions in normal saline into cell culture media to give a final culture-well volume of 200 ul. […] Plates were gently vortexed to complete solubilisation of crystalline material and absorbance read at 540 nm using a microplate reader. […]
# [2] = system: HT29 human colorectal adenocarcinoma cells; assay: MTT cell proliferation assay, serum-free; conditions: absence of serum, 72 hour MTT assay, FIG. 5c
# Procedure: as §1, §2, §3, §4
# [3] = system: MKN45 human gastric carcinoma cells; assay: MTT cell proliferation assay, serum-containing; conditions: presence of serum, 48 hour MTT assay, FIG. 6
# Procedure: as §1, with “Detached cells were transferred to a conical sterile tube and the suspended cells passaged ten times up and down through a 10 ml pipette to produce a single cell suspension suitable for counting.” left out, “haemocytometer. […]” for “haemocytometer.”
# as §4
# [4] = system: SW480 human colon carcinoma cells; assay: MTT cell proliferation assay, serum-containing; conditions: presence of serum, 48 hour MTT assay, FIG. 6
# Procedure: as §1, with “Detached cells were transferred to a conical sterile tube and the suspended cells passaged ten times up and down through a 10 ml pipette to produce a single cell suspension suitable for counting.” left out, “haemocytometer. […]” for “haemocytometer.”
# as §4
substance,measurement,setting,value
"24-NH2: peptide consisting of amino acids 266-289 of GenBank Accession No. O68604; extended version of peptide 22C, synthesized and amidated (DDVRRRVQQETTGHRGRAKDPLYR-NH2; listed as Brevibacterium linens)",depression of in vitro cell proliferation of colon cancer cells,"[1]; MTT assay (72 hours), serum-containing, concentration of 50 μM, FIG. 5a",up to 36%
DDVRRRVQQETTGHRGRAKDPL (listed as Brevibacterium linens) [22C],depression of in vitro cell proliferation of colon cancer cells,"[1]; MTT assay containing serum (24 hour assay), concentration of 35 uM, FIG. 5d",up to 54%
same,effectiveness compared with other peptides,"[1]; serum-supplemented culture media, FIG. 5d and FIG. 5a",more effective than peptide 14C and peptide 8C; also recorded: more effective than the 24-NH2 peptide
same,inhibition of growth of HT29 colon cancer cells,[2],inhibited the growth
same,inhibition of proliferation of MKN45 cells,[3],inhibit proliferation of SW480 and MKN45 cells to a similar degree as for HT29 cells
same,inhibition of proliferation of SW480 cells,[4],inhibit proliferation of SW480 and MKN45 cells to a similar degree as for HT29 cells
"H-DDVRRRVQQETTGH-COOH (H-DDVRRRVQQETTGH-OH) [14C, 14 mer derivative of 22C containing the TAT-like motif]",inhibition of growth of HT29 colon cancer cells,[2],inhibited the growth
RGRAKDPL [8C],inhibition of growth of HT29 colon cancer cells,[2],inhibited the growth
